# Results taken from US20040014217A1, “Methods of transfection” (priority 2000, published 2004).
# Key:
# [1] = test system: confluent epithelial cells; assay: Transepithelial resistance after EGTA exposure; conditions: 2 mM EGTA; data not shown
# confluent 1HAEo-cells = assay: Binding of FITC-labelled LID complexes to confluent cells; type: cell-based, human; conditions: 2 mM EGTA, 4° C.
# Description: The effects of EGTA on cell binding were determined by transfection with LID complexes prepared with fluorescein (FITC) labelled peptide. Peptide-12 was labelled with FITC from a labelling kit (Calbiochem, San Diego, USA) and purified by dialyzing in PBS overnight, according to the manufacturer's instruction. The ability of FITC-conjugated peptide-12 to form complexes with plasmid DNA was determined by retardation test, in which the electrophoresis migration of DNA is retarded by forming complexes with the cationic peptide as described previously (Hart et al., 1995). […] The cells were then transfected with apically added LID-FITC for 60 minutes at 4° C., at which the complexes would only bind to cell surface and no internalisation would occur, see(Chu et al (1999), Cornelissen et al (1997), Im et al (1986). The surface binding of the LID complexes was further differentiated from the internalised LID by incubating the cells with 1 μg/ml crystal violet (Sigma, Poole, UK) for 10 minutes at 4° C., to quench the fluorescence of surface-bound LID complexes, see (Ma et al (1997), Van Amers & Van Strijp (1994). The mean numbers of fluorescent particles were then counted in 10 random microscope fields and comparison was made between the data obtained from EGTA-treated or untreated cells.
# [2] = test system: Human airway epithelial (HAE) cells; assay: GFP transfection of HAE cells with or without EGTA (FACS), Example 13; type: cell-based; conditions: EGTA 1 mM
# Description: Human airway epithelial (HAE) cells, type HEAO— were seeded at 80% into 24 well plates. The cells were grown in Modified Eagle Medium (MEM) obtained from Life Technologies (Paisley, Scotland) supplemented with 10% foetal calf serum and 2 mM L-glutamine to form cultures of confluent cells. Subconfluent cultures of the same cells were also prepared.
# The reporter genes used were a green fluorescent protein (GFP) reporter gene and a luciferase reporter gene. The GFP reporter gene was used in the form of plasmid pEGFP-N1, obtained from Clontech. The luciferase reporter gene was used in the form of construct pCILuc consisting of the firefly luciferase gene (Luc) inserted into the expresssion vector pCI (Promega, Southampton, England)
# For these in vitro experiments peptide 12 [K]16XSXGACRRETAWACG (X: ε amino hexanoic acid), SEQ.ID.NO.: 26, was used. […]
# Transfection levels using the luciferase reporter gene was measured as described in the Material and methods section. In the case of the GFP reporter gene, after harvesting the cells were analysed by fluorescence activated cell sorting (FACS) for quantification of the number of fluorescent cells.
# 1HAEo-cells [3] = assay: BrdU incorporation by flow cytometry, 1HAEo- cells; type: cell-based, human; conditions: EGTA 2 mM, aphidicolin 10 μg/ml where present
# Description: A BrdU Labelling and Detection Kit (Roche, Basel, Switzerland) was used, which contains the BrdU labelling reagent and the monoclonal mouse anti-BrdU. […] Cells were washed with PBS and incubated with a second layer antibody, Texas Red labelled horse anti-mouse IgG (Vector Laboratories, Peterborough, UK), for 30 minutes at 37° C. and then analysed by flow cytometry at the wavelength of 575±20 nm as detailed above. In some experiments, aphidicolin, a cell-proliferation inhibitor blocking the cell cycle in S-phase, was added to the cells to observe the effects on transfection efficiency.
# 1HAEo-cells [4] = assay: Luminometric luciferase assay, EGTA effects, 1HAEo- cells; type: cell-based, human; conditions: 2 mM EGTA prior to transfection, 2 washes
# Description: The confluent (A) and subconfluent (B) 1HAEo-cells were transfected with LID complexes after pre-treatment with EGTA (EGTA) or in the presence of EGTA (LID+EGTA).
# To enhance the efficiency of transfection in confluent epithelial cells, several agents were tested including EGTA (Sigma, Poole, UK), trypsin/EDTA (Sigma, Poole, UK), water, and mouse anti human E-cadherin antibody (Serotec Ltd, Oxford, UK). It was carried out firstly by comparing the effects of pretreatment of the cells with EGTA, water and Trypsin/EDTA with EGTA formulated into LID vector without pretreatment. […]
# Twenty-four hours after transfection with pCI-luciferase, is cells were washed with PBS, lysed by adding 100 μl of Reporter Lysis Buffer (Promega, Southampton, UK) and detached from the plate by manual scraping using micropipette tips. […] The activity of luciferase was assayed with a luciferase assay kit (Promega, Southampton, UK) on a Lucy-1 plate-reading luminometer (Anthos, Salzburg, Austria). The protein concentration of each sample was determined with Protein Assay Reagent (BioRad Laboratories, Hertfordshire, UK) by measuring absorbance at 595 nm and the specific activity of luciferase was expressed as relative light unit per milligram protein (RLU/mg protein).
smiles,measurement,setting,value
"O=C(O)CN(CCOCCOCCN(CC(=O)O)CC(=O)O)CC(=O)O [EGTA, ethylene glycol-bis(β-aminoethyl ether)-N,N,N′,N′-tetraacetic acid]",recovery of transepithelial resistance after removal,[1],16 to 18 h
same,time after exposure at which transepithelial resistance dropped,[1],about 10 minutes
same,binding of LID particles to confluent cells,confluent 1HAEo-cells,greatly increased
same,effect on efficiency of transfection of sub-confluent cells,[2],no effect
same,increase of transfection levels of confluent cells,[2],four-fold
same,"BrdU-positive cells, sub-confluent 1HAEo- cells",1HAEo-cells [3],about 24%
same,"enhancement of transfection, EGTA pre-treatment protocol, confluent cells",1HAEo-cells [4],no enhancement
